Measured values taken from US20240083888A1, “SMALL MOLECULE INHIBITOR FOR CATHEPSIN C AND MEDICINAL USE THEREOF” (REISTONE BIOPHARMA COMPANY LIMITED, priority 2020, published 2024).
pIC50: −log10 of the molar value. Where a name gives a salt, the structure may show the parent alone. Read-outs that look alike come from different tables or passages of the source.

Key:
rhCatC = rhCatC (Homo sapiens (Human), UniProt P53634); assay: In vitro enzyme activity experiment of rhCatC (AMC fluorescence assay); type: biochemical; conditions: rhCatC enzyme, substrate H-Gly-Arg-AMC; read-out: Biological activity IC50
Method: The in vitro inhibitory effect of compounds and positive control on rhCatC enzyme activity was evaluated by AMC fluorescence assay. rhCatC can catalyze the reaction of substrate peptide H-Gly-Arg-AMC, and release AMC to generate fluorescence. […] The compound was diluted with DMSO to a 384-well echo plate at a concentration of 100× of the highest concentration at the beginning of the experiment. 0.2 μL of the diluted compound was pipetted to a black-bottomed 384-well reaction plate for later use. The negative control well was DMSO. • 2) Activation of rhCatC: RhCatC and rhCatL were added to the activation buffer to obtain a final concentration of rhCatC of 100 μg/mL and a final concentration of rhCatL of 20 μg/mL, and incubated at room temperature for 1 hour. • 3) Enzyme activity reaction: Activated rhCatC was diluted to 0.4 μg/mL with the reaction buffer. The solution was added to the black-bottom 384-well reaction plate ([…]). 10 μL of the buffer was added for the vehicle control group. The plate containing compounds in its wells was incubated at room temperature for 30 minutes.
The RLU data was read, the inhibition rate was calculated, and the IC50 value was calculated according to the fitting curve of concentration and inhibition rate.

CatC = CatC (Homo sapiens (Human), UniProt P53634); assay: In vitro CatC cell activity experiment in U937 cell line; type: cell-based
Method: The U937 cell line was resuscitated and passed for about two generations, and the cell line with good growth status was selected. The cell suspension was transferred into a centrifuge tube, and centrifuged at 800 to 1000 rpm for 3 to 5 minutes. The supernatant was discarded. An appropriate volume of culture medium was added to the centrifuge tube, which was gently pipetted to resuspend the cells evenly. The cells were counted using a Vi-Cell XR cell counter. The cell suspension was adjusted to an appropriate concentration. The cell suspension was added into a 384-well plate ([…]). The compound was formulated into a 10 mM solution with DMSO. The compound was diluted with DMSO to obtain a 1 mM solution, and a semi-logarithmi dilution was carried out by HPD300 with DMSO to obtain 10 concentrations. Gly-Phe-AFC was formulated into a 35 mM solution with DMSO and divided. […] After adding the compounds and incubating for 1 hour in an incubator, substrate-AFC was added (12.5 μL was added to the plate). The plate was incubated for 30 minutes and read. […] XLFit was used to draw the drug efficacy inhibition rate curve and calculate the IC50 value. 4-parameter model [fit=(A+((B−A)/(1+((C/x)^D))))] was used.

[1] = U937 cells, CatC cell activity, read-out: Biological activity IC50

Chain of rhCatC (P53634 25-134): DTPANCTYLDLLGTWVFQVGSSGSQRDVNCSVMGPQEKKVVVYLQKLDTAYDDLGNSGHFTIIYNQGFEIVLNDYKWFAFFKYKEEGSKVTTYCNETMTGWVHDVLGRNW
Chain of rhCatC (P53634 231-394): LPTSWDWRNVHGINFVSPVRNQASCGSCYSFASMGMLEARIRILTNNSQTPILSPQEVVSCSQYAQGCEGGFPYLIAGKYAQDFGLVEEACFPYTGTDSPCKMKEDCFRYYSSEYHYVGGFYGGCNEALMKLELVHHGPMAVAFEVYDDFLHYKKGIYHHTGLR
Chain of rhCatC (P53634 395-463): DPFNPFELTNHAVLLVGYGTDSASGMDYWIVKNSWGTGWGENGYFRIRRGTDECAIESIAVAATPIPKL

Compound | pIC50 (rhCatC) | pIC50 (CatC; [1]) | pIC50 (CatC)
N#C[C@H](Cc1ccc2c(c1)CCc1ccccc1-2)NC(=O)[C@@H]1CNCCCO1 [Compound 8, (S)—N—((S)-1-Cyano-2-(9,10-dihydrophenanthren-2-yl)ethyl)-1,4-oxazepane-2-carboxamide] | 7.22 | 6.66 | –
CS(=O)(=O)c1ccc2c(c1)COc1cc(CC(C#N)NC(=O)[C@@H]3CNCCCO3)c(F)cc1-2 (stereo partly drawn) [Compound 29, (2S)—N-(1-Cyano-2-(2-fluoro-8-(methylsulfonyl)-6H-benzo[c]chromen-3-yl)ethyl)-1,4-oxazepane-2-carboxamide] | 7.77 | – | 7.43
N#Cc1ccc2c(c1)COc1cc(CC(C#N)NC(=O)C3(N)CCOCC3)ccc1-2 (stereo not shown) [Compound 25, 4-Amino-N-(1-cyano-2-(8-cyano-6H-benzo[c]chromen-3-yl)ethyl)tetrahydro-2H-pyran-4-carboxamide] | 8.51 | – | 8.26
N#CC(Cc1ccc2c(c1)OCc1cc(F)ccc1-2)NC(=O)C1(N)CCOCC1 (stereo not shown) [Compound 22, 4-Amino-N-(1-cyano-2-(8-fluoro-6H-benzo[c]chromen-3-yl)ethyl)tetrahydro-2H-pyran-4-carboxamide formate] | 8.49 | – | 8.26
N#Cc1ccc2c(c1)COc1cc(CC(C#N)NC(=O)[C@@H]3CNCCCO3)ccc1-2 (stereo partly drawn) [Compound 13, (2S)—N-(1-Cyano-2-(8-cyano-6H-benzo[c]chromen-3-yl)ethyl)-1,4-oxazepane-2-carboxamide] | 7.43 | – | 7.06
N#CC(Cc1cc2c(cc1F)-c1ccc(F)cc1CO2)NC(=O)[C@@H]1CNCCCO1 (stereo partly drawn) [Compound 12, (2S)—N-(1-Cyano-2-(2,8-difluoro-6H-benzo[c]chromen-3-yl)ethyl)-1,4-oxazepane-2-carboxamide] | 7.80 | – | 7.64
N#CC(Cc1ccc2c(c1)OCc1ccc(C3COC3)cc1-2)NC(=O)[C@@H]1CNCCCO1 (stereo partly drawn) [Compound 28, (2S)—N-(1-Cyano-2-(9-(oxetan-3-yl)-6H-benzo[c]chromen-3-yl)ethyl)-1,4-oxazepane-2-carboxamide] | – | – | 7.30
N#C[C@H](Cc1ccc2c(c1)OCc1cc(F)c(F)cc1-2)NC(=O)[C@@H]1CNCCCO1 [Compound 16, (S)—N—((S)-1-Cyano-2-(8,9-difluoro-6H-benzo[c]chromen-3-yl)ethyl)-1,4-oxazepane-2-carboxamide] | 7.04 | – | 6.73
CN1Cc2cc(F)ccc2-c2ccc(C[C@@H](C#N)NC(=O)C3(N)CCOCC3)cc2C1=O [Compound 40, (S)-4-Amino-N-(1-cyano-2-(9-fluoro-6-methyl-5-oxo-6,7-dihydro-5H-dibenzo[c,e]azepin-3-yl)ethyl)tetrahydro-2H-pyran-4-carboxamide] | 8.43 | 7.99 | –
N#CC(Cc1cc2c(cc1F)-c1ccc(F)cc1CO2)NC(=O)C1(N)CCOCC1 (stereo not shown) [Compound 24, 4-Amino-N-(1-cyano-2-(2,8-difluoro-6H-benzo[c]chromen-3-yl)ethyl)tetrahydro-2H-pyran-4-carboxamide] | 8.57 | – | 8.37
N#Cc1ccc2c(c1)-c1cc(F)c(CC(C#N)NC(=O)[C@@H]3CNCCCO3)cc1OC2 (stereo partly drawn) [Compound 31, (2S)—N-(1-Cyano-2-(9-cyano-2-fluoro-6H-benzo[c]chromen-3-yl)ethyl)-1,4-oxazepane-2-carboxamide] | – | – | 7.42
N#Cc1cc2c(cn1)-c1cc(F)c(CC(C#N)NC(=O)[C@@H]3CNCCCO3)cc1OC2 (stereo partly drawn) [Compound 18, (2S)—N-(1-Cyano-2-(3-cyano-9-fluoro-5H-chromeno[4,3-c]pyridin-8-yl)ethyl)-1,4-oxazepane-2-carboxamide] | 7.31 | – | 7.53
CN1Cc2cc(C#N)ccc2-c2cc(F)c(C[C@@H](C#N)NC(=O)[C@@H]3CNCCCO3)cc2C1=O [Compound 41, (S)—N—((S)-1-Cyano-2-(9-cyano-2-fluoro-6-methyl-5-oxo-6,7-dihydro-5H-dibenzo[c,e]azepin-3-yl)ethyl)-1,4-oxazepane-2-carboxamide] | 7.52 | 6.93 | –
N#CC(Cc1cc2c(cc1F)-c1ccc(S(=O)(=O)N3CCC3)cc1CO2)NC(=O)[C@@H]1CNCCCO1 (stereo partly drawn) [Compound 35, (2S)—N-(2-(8-(Azetidin-1-ylsulfonyl)-2-fluoro-6H-benzo[c]chromen-3-yl)-1-cyanoethyl)-1,4-oxazepane-2-carboxamide] | 7.82 | 7.42 | –
N#CC(Cc1ccc2c(c1)OCCc1cc(F)ccc1-2)NC(=O)C1(N)CCOCC1 (stereo not shown) [Compound 36, 4-Amino-N-(1-cyano-2-(9-fluoro-6,7-dihydrodibenzo[b,d]oxepin-3-yl)ethyl)tetrahydro-2H-pyran-4-carboxamide] | 8.15 | 7.63 | –
N#CC(Cc1ccc2c(c1)CCc1ccccc1-2)NC(=O)C1(N)CCOCC1 (stereo not shown) [Compound 7, 4-Amino-N-(1-cyano-2-(9,10-dihydrophenanthren-2-yl)ethyl)tetrahydro-2H-pyran-4-carboxamide] | 8.17 | 7.99 | –
N#C[C@H](Cc1cc2c(cc1F)-c1ccc(F)cc1CO2)NC(=O)[C@@H]1CNCCCO1 [Compound 20, (S)—N—((S)-1-Cyano-2-(2,8-difluoro-6H-benzo[c]chromen-3-yl)ethyl)-1,4-oxazepane-2-carboxamide] | 7.96 | – | 8.11
N#C[C@H](Cc1ccc2c(c1)CC(=O)N(c1ccc(F)cc1)C2)NC(=O)C1(N)CCCCC1 [Compound 58, (S)-1-Amino-N-(1-cyano-2-(2-(4-fluorophenyl)-3-oxo-1,2,3,4-tetrahydroisoquinolin-6-yl)ethyl)cyclohexane-1-carboxamide] | – | 7.00 | –
N#CC(Cc1ccc2c(c1)COCc1cc(F)ccc1-2)NC(=O)C1(N)CCOCC1 (stereo not shown) [Compound 37, 4-Amino-N-(1-cyano-2-(9-fluoro-5,7-dihydrodibenzo[c,e]oxepin-3-yl)ethyl)tetrahydro-2H-pyran-4-carboxamide] | 7.85 | 8.07 | –
CS(=O)(=O)c1ccc2c(c1)COc1cc(C[C@@H](C#N)NC(=O)[C@@H]3CNCCCO3)c(F)cc1-2 [Compound 30, (S)—N—((S)-1-Cyano-2-(2-fluoro-8-(methylsulfonyl)-6H-benzo[c]chromen-3-yl)ethyl)-1,4-oxazepane-2-carboxamide] | 8.00 | – | 8.02
N#C[C@H](Cc1ccc2c(c1)OCc1cc(F)c(F)cc1-2)NC(=O)C1(N)CCOCC1 [Compound 17, (S)-4-Amino-N-(1-cyano-2-(8,9-difluoro-6H-benzo[c]chromen-3-yl)ethyl)tetrahydro-2H-pyran-4-carboxamide] | 8.24 | – | 8.21
N#Cc1ccc(N2Cc3cc(C[C@@H](C#N)NC(=O)C4(N)CCOCC4)ccc3C2=O)cc1 [Compound 45, (S)-4-Amino-N-(1-cyano-2-(2-(4-cyanophenyl)-1-oxoisoindolin-5-yl)ethyl)tetrahydro-2H-pyran-4-carboxamide] | 7.14 | – | –
N#Cc1ccc2c(c1)COc1cc(C[C@@H](C#N)NC(=O)[C@@H]3CNCCCO3)c(Cl)cc1-2 [Compound 21, (S)—N—((S)-2-(2-Chloro-8-cyano-6H-benzo[c]chromen-3-yl)-1-cyanoethyl)-1,4-oxazepane-2-carboxamide] | – | – | 7.61
N#Cc1ccc2c(c1)COc1cc(C[C@@H](C#N)NC(=O)[C@@H]3C[C@@H]4CCC[C@@H]4N3)c(F)cc1-2 [Compound 26, (2S,3aS,6aS)—N—((S)-1-Cyano-2-(8-cyano-2-fluoro-6H-benzo[c]chromen-3-yl)ethyl)octahydrocyclopenta[b]pyrrole-2-carboxamide] | 8.05 | 8.17 | –
